Measurements from patent US9981968B2, “Substituted pyrrolo[2,3-d]pyrimidines for the treatment of cancer and proliferative disorders” (Northwestern University, priority 2013, dated 2018).

Experiments:
[1] = tested on: MM.1S cells; assay: MTS CellTiter 96 cell proliferation assay, MM.1S; type: cell-based, human
Description: Cell viability was assessed by MTS assay as follows.
The MTS CellTiter 96 assay is a colorimetric method to assess the number of viable cells based on the conversion of a tetrazolium compound (MTS) to a formazan product by the mitochondrial dehydrogenase enzyme of the cells. This assay is used to determine the number of viable cells remaining following a drug treatment in comparison to the number of viable cells that are only treated with the drug vehicle (control cells). The amount of formazan product in the control cells is normalized to 100% and the amount of formazan in the drug treated cells is expressed as a percentage of control. This is used to generate dose response curve and estimate the drug concentration that produced a 50% decrease in the number of viable cells.

[2] = tested on: NCI-60 Cell Lines; assay: Inhibiting growth of NCI-60 cell lines (panel summary); type: cell-based, human; conditions: 10 μM, compared to doxorubicin
Description: NUCL 381-3 and NUCL 383-3 (referred to as “NUCC-00381” and “NUCC-000383” above, respectively) were administered to a variety of cancer cell lines in order to test their ability to inhibit cell growth as compared to doxorubicin.
Tested cell lines included, Leukemia: CCRF-CEM, HL-60(TB), MOLT-4, RPMI-8226 and SR; Non-Small Cell Lung: A549/ATCC, EKVX, HOP-62, HOP-92, NCI-H226, NCI-H23, NCI-H322M, NCI-H460 and NCI-H522; Colon: COLO 205, HCC-2998, HCT-116, HCT-15. HT29, KM12 and SW-620; CNS: SF-268, SF-295, SF-539, SNB-19, SNB-75 and U251; Melanoma: LOX IMVI, MALME-3M, M14, MDA-MB-435, SK-MEL-2, SK-MEL-28, SK-MEL-5, UACC-257 and UACC-62; Ovarian: IGR-OV1, OVCAR-3, OVCAR-4, OVCAR-5, OVCAR-8. NCI/ADR-RES and SK-OV-3; Renal: 786-0, A498, ACHN, CAKI-1, RXF 393, SN12C, TK-10 and UO-31; Prostate: DU-145 and PC-3; and Breast: MCF7, MDA-MB-231/ATCC, MDA-MB-468, HS 578T, BT-549 and T-47D.
The cells were cultured in RPMI1640 media supplemented with 10% Fetal Bovine Serum (FBS), 2 mM glutamine and with 5% CO2 and 37° C. […]
Cells were plated in 96 well plates. […] One hundred microliters of Trizma base was added to each well and plates were read at 515 nm.
Percent of growth was calculated by the following formulas: [Ti/C]×100, where: Tz=absorbance readings for wells at time zero without treatment; C=absorbance readings of untreated cells (without treatment); and Ti=absorbance reading of wells with treatment.

## FC(F)(F)c1cn(CC2CCNCC2)c2ncnc(Cl)c12 [NUCC-0000381]
[1]; 0.1-10 μM, MTS assay, FIG. 1, compared with 8-amino adenosine
  decreasing cell proliferation: as effective in decreasing cell proliferation as 8-amine-adenosine
[1]; Homo sapiens, MM1.S, MTS cell proliferation assay, read-out: Estimated IC50
  IC50: 600 nM
[2]
  cell viability across NCI-60 cell lines: reduce cell viability for a number of cell lines
